Where two headings read alike, the source gives them in different places.
What was measured:
[1] = system: human iPSC neurons and astrocytes treated with 5 μM sAβ42s; experiment: Focused small molecule screen, double culture (neuron, astrocyte), rescue from sAβ42s toxicity, high content imaging; assay type: cell-based; conditions: for % B3T rescue / % Cux2 rescue / % MAP2 rescue / % Synapse rescue / percent rescue from sAβ42s toxicity at 50 µM: double culture, 5 μM sAβ42s; for percent rescue from sAβ42s toxicity at 50 µM: Homo sapiens, iPSC
Protocol: (§1) FIGS. 11A-11D show synapse % rescue versus MAP2% rescue (FIGS. 11A-11B) and beta III tubulin % rescue versus MAP2% rescue (FIGS. 11C-11D), in neurons and astrocytes (FIGS. 11A and 11C) or neurons, astrocytes, and microglia (FIGS. 11B and 11D) treated with 5 μM sAβ42s and small molecules from a focused screen of known neuroprotective agents at multiple concentrations (50 μM, 25 μM, 12.5 μM and 6.25 μM (double culture), 50 μM, 12.5 μM, 3.1 μM and 0.78 μM (triple culture). Small molecules that prevented toxicity in dendrites (MAP2), synapses (Synapsin 1/2), cell count (CUX2), or axons ([…]) at or above 30% were considered hits (red dotted line).
Neurons from both NSC lines were evaluated by immunofluorescence staining. Briefly, cells were fixed with 4% PFA and 4% sucrose at room temperature for 20 minutes using Bravo automation. Fixed cells were then washed 2 times with PBS using Biotek 406 microplate washer (Beckman Coulter), followed by permeabilization and blocking by incubation with a solution containing 1×PBS, 0.1% Triton X-100, 2% donkey serum, and 1% BSA at room temperature for 30 minutes. Blocking solution was removed and cells were incubated with primary antibodies in blocking solution overnight at 4° C. After washing 6 times with PBS on Biotek 406 cell plate washer (Beckman Coulter), cells were then incubated with fluorophore-conjugated secondary antibodies for 1 hour at room temperature in the dark to avoid photobleaching. Cells were then washed 6 more times in with PBS before imaging. Fluorescent images were captured using IN Cell 6000 confocal microscope (GE Healthcare Life Sciences). The image analysis was performed with IN Cell 6000 analysis software.
Prior to experimentation, media volume in wells containing neurons was equalized with liquid handling automation (Bravo) in order to ensure precise control of concentrations. All Aβ42 oligomers, anti-Aβ, small molecules, inflammatory cytokines were prepared at 10× concentration and added to Neuronal Culture Media at an appropriate volume. For the repeated dosing experiments, the media were refreshed 50% at each dosing first, before adding Aβ42 oligomers, and/or anti-Aβ antibody at the specified final concentration.
(§2) In double (neuron, astrocyte) and triple (neuron, astrocyte, microglia) cultures, each small molecule listed in Table 1 was tested in the AD model paradigm at up to four concentrations. Molecules that characterized ≥30% rescue in any of the four measurements of dendrites area (MAP2), synapses count (synapsin 1/2), or cell count (CUX2), or axon area (Beta III Tubulin; “BT3”)) were classified as hits (FIGS. 11A-11D, Table 2, and Table 3).

[2] = system: human iPSC neurons, astrocytes and microglia treated with 5 μM sAβ42s; experiment: Focused small molecule screen, triple culture (neuron, astrocyte, microglia), rescue from sAβ42s toxicity; assay type: cell-based; conditions: for percent rescue from sAβ42s toxicity at 50 µM: Homo sapiens, iPSC
Protocol: as §1
Frozen cells were thawed and immediately seeded at a density of 8,000 cells/well of a 384-well plate onto 8-week old neuron-astrocyte co-culture in Microglia media (BrainPhys™ neuronal media (Stem Cell Technologies) supplemented with 1× B27 with vitamin A, 1×N2 Plus Media Supplement (R&D Systems), 20 ng/mL BDNF, 20 ng/mL GDNF, 1 mM creatine, 200 nM L-ascorbic acid, 1 μg/mL mouse laminin, 0.5 mM GlutaMAX™ (Thermofisher), 0.5× penicillin-streptomycin, 1× normocin, 5 ng/mL TGF-β, 100 ng/mL human IL-34, 1.5 μg/mL cholesterol, 1 ng/mL gondoic acid, 100 ng/mL oleic acid, 460 μM thioglycerol, 1× insulin-transferrin-selenium, 25 ng/mL rhM-CSF, 5.4 μg/mL human insulin solution).
as §2

| Structure (SMILES) | % B3T rescue ([1]; 50 μM compound) | % Cux2 rescue ([1]; 50 μM compound) | % MAP2 rescue ([1]; 50 μM compound) | % Synapse rescue ([1]; 50 μM compound) | % B3T rescue ([2]; 3.13 μM compound) | % MAP2 rescue ([2]; 3.13 μM compound) | % Synapse rescue ([2]; 3.13 μM compound) | % B3T rescue ([2]; 12.50 μM compound) | % MAP2 rescue ([2]; 12.50 μM compound) | % Synapse rescue ([2]; 12.50 μM compound) | % B3T rescue ([2]; 50.00 μM compound) | % MAP2 rescue ([2]; 50.00 μM compound) | % Synapse rescue ([2]; 50.00 μM compound) | also measured |
| --- | --- | --- | --- | --- | --- | --- | --- | --- | --- | --- | --- | --- | --- | --- |
| N#CC(c1ccnc(NCCc2cccnc2)n1)c1nc2ccccc2s1 (stereo not shown) [AS601245] | −16% | 123% | 64% | 19% | 18% | 54% | 17% | 26% | 74% | 26% | 44% | 95% | 45% | % B3T rescue ([1]; 6.25 μM compound): 14%; % Cux2 rescue ([1]; 6.25 μM compound): 9%; % MAP2 rescue ([1]; 6.25 μM compound): 49%; % Synapse rescue ([1]; 6.25 μM compound): 37%; % B3T rescue ([1]; 12.5 μM compound): 20%; % Cux2 rescue ([1]; 12.5 μM compound): 13%; % MAP2 rescue ([1]; 12.5 μM compound): 67%; % Synapse rescue ([1]; 12.5 μM compound): 57%; % B3T rescue ([1]; 25 μM compound): 11%; % Cux2 rescue ([1]; 25 μM compound): 32%; % MAP2 rescue ([1]; 25 μM compound): 73%; % Synapse rescue ([1]; 25 μM compound): 36%; protection in focused screens ([1]; double and triple cultures): protective to a lesser extent |
| N#C/C(=C\c1ccc(O)c(O)c1)C(=O)OCCc1cccs1 [2-TEDC] | 31% | 16% | 22% | 10% | 40% | 22% | 15% | 43% | 25% | 17% | 73% | 48% | 40% | – |
| CC(=O)c1c(C)c2cnc(Nc3ccc(N4CCNCC4)cn3)nc2n(C2CCCC2)c1=O [PD 0332991 isethionate] | – | – | – | – | – | – | – | – | – | – | – | – | – | percent rescue from sAβ42s toxicity at 50 µM ([1]; 50 μM compound, read-out: % B3T rescue): 69%; percent rescue from sAβ42s toxicity at 50 µM ([1]; 50 μM compound, read-out: % Cux2 rescue): -37%; percent rescue from sAβ42s toxicity at 50 µM ([1]; 50 μM compound, read-out: % MAP2 rescue): -97%; percent rescue from sAβ42s toxicity at 50 µM ([1]; 50 μM compound, read-out: % Synapse rescue): -15%; percent rescue from sAβ42s toxicity at 50 µM ([2]; 50.00 μM compound, read-out: % B3T rescue): 90%; percent rescue from sAβ42s toxicity at 50 µM ([2]; 50.00 μM compound, read-out: % MAP2 rescue): -79%; percent rescue from sAβ42s toxicity at 50 µM ([2]; 50.00 μM compound, read-out: % Synapse rescue): -29% |
